According to patent publication US10039839B2, “Compounds that participate in cooperative binding and uses thereof” (Warp Drive Bio, Inc., priority 2015, dated 2018):
Square brackets hold non-standard residues; d marks the D form. Peptide text beside a SMILES is read from it. MeBmt = C/C=C/C[C@@H](C)[C@@H](O)[C@H](NC)C(=O)O; NMepY = CN[C@@H](Cc1ccc(OP(=O)(O)O)cc1)C(=O)O; NMeL = CN[C@@H](CC(C)C)C(=O)O; NMeV = CN[C@H](C(=O)O)C(C)C; Abu = CC[C@H](N)C(=O)O; Sar = CNCC(=O)O

Columns and labels:
HeLa-Cyclophilin A cells = assay: Biosensor cell permeability assay, cyclophilin binding compounds; type: cell-based; details: 72 hrs
Method: This protocol utilizes a modified FKBP or cyclophilin destabilizing mutant to determine the bioactivity of FKBP binding compounds or cyclophilin binding compounds in whole cell assay.
Plate HeLa-FKBP12 cells (for FKBP binding compounds) or HeLa-Cyclophilin A cells (for cyclophilin binding compounds) and seed overnight at 5 k/well (approximately ˜18 hrs.). Using a multi-channel pipet, take out the old media and add ˜125 ul of new media with compounds. Compounds are diluted using DMEM without Phenol Red, 10% FBS, 1× Sodium Pyruvate, 1× Glutamax. Add 125 ul of media with compound per well.
Cell binding/permeability is calculated in fold-change (Total RFU of treated samples/total RFU of DMSO treated samples or total RFU above background (Total RFU minus total RFU of DMSO treated samples).

Cyclophilin A = target: T1, Cyclophilin A (Homo sapiens, UniProt P62937); assay: biochemical; type: binding
T1 construct: made in house
Method: This protocol utilizes Perkin Elmers AlphaLISA technology platform to detect cyclosporine analogues by measuring the inhibition of binding of biotinylated Cyclosporin A to FLAG tagged Cyclophilin A.
Add 20 uL of 6 nM Biotinylated CsA working stock to each well of the 96-well plate. Add 1 uL of test compound (100% DMSO) to each well of the plate using the Janus MTD head and P20 tips (except control wells). Add 1 uL of DMSO to negative control wells and 1 uL of 500 uM Cyclosporin A solution to positive control wells. In the dark, add 20 uL of combined Donor/Acceptor beads to each well. Incubate in the dark for 30 minutes at room temperature. […] Incubate in the dark for 60 minutes at room temperature.

T1 sequence (P62937 whole entry, species assumed): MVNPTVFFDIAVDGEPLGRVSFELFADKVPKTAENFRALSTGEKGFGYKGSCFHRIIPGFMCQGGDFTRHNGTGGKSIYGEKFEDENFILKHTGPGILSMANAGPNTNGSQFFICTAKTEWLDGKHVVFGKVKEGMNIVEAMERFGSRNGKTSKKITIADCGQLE

Row | SMILES | IC50 (HeLa-Cyclophilin A cells) [nM] | IC50 (Cyclophilin A) [nM]
1 | C/C=C/C[C@@H](C)[C@@H](O)[C@H]1C(=O)N[C@@H](CC)C(=O)N(C)CC(=O)N(C)[C@@H](Cc2ccc(OP(=O)(O)O)cc2)C(=O)N[C@@H](C(C)C)C(=O)N(C)[C@@H](CC(C)C)C(=O)N[C@@H](C)C(=O)N[C@H](C)C(=O)N(C)[C@@H](CC(C)C)C(=O)N(C)[C@@H](CC(C)C)C(=O)N(C)[C@@H](C(C)C)C(=O)N1C [C41] (cyclo([MeBmt][Abu][Sar][NMepY]V[NMeL]A[dA][NMeL][NMeL][NMeV])) | > 3000 | < 2000
2 | C/C=C/C[C@@H](C)[C@@H](O)[C@H]1C(=O)N[C@@H](CC)C(=O)N(C)CC(=O)N(C)[C@@H](C(C)C)C(=O)N[C@@H](C(C)C)C(=O)N(C)[C@@H](CC(C)C)C(=O)N[C@@H](C)C(=O)N[C@H](C)C(=O)N(C)[C@@H](CC(C)C)C(=O)N(C)[C@@H](CC(C)C)C(=O)N(C)[C@@H](C(C)C)C(=O)N1C [C40] (cyclo([MeBmt][Abu][Sar][NMeV]V[NMeL]A[dA][NMeL][NMeL][NMeV])) | < 3000 | < 2000
